Test results published in ChEMBL document CHEMBL1201862, “PubChem BioAssay data set” (2004).
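All cell lines were grown in 96-well plates and treated with compound for 48 hours. GI50 marks 50% less growth.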 The source made the active and inactive calls. No stated cut-off is given here; in the data, active = GI50 up to about 1.1 µM and inactive = higher.

How the values were obtained:
Test in all cases: NCI tumour cell line growth inhibition, 48 h
SK-MEL-28 = system: SK-MEL-28
HOP-92 = system: HOP-92
SF-295 = system: SF-295
CCRF-CEM = system: CCRF-CEM
TK-10 = system: TK-10
SF-268 = system: SF-268
K562 = system: K562
NCI-H522 = system: NCI-H522
UACC-257 = system: UACC-257
CAKI-1 = system: CAKI-1
HCC 2998 = system: HCC 2998
MOLT-4 = system: MOLT-4
OVCAR-5 = system: OVCAR-5
SNB-19 = system: SNB-19
OVCAR-3 = system: OVCAR-3
SN12C = system: SN12C
UO-31 = system: UO-31
UACC-62 = system: UACC-62
SNB-75 = system: SNB-75

Measured: GI50

CC1(C)C(=O)CCC(=O)C(C)(C)C2=CC=C(O2)C(C)(C)C(=O)CCC(=O)C(C)(C)C2=CC=C1O2
inactive: SK-MEL-28 > 100 µM | HOP-92 76.9 µM | SF-295 > 100 µM | CCRF-CEM > 100 µM | TK-10 > 100 µM | SF-268 > 100 µM | K562 > 100 µM | NCI-H522 > 100 µM | UACC-257 > 100 µM | CAKI-1 > 100 µM | HCC 2998 > 100 µM | MOLT-4 > 100 µM | OVCAR-5 > 100 µM | SNB-19 > 100 µM | OVCAR-3 > 100 µM

O=C1OC(=O)c2c1nc1ccccc1c2-c1ccccc1
inactive: SN12C > 100 µM | HOP-92 > 100 µM | SF-295 > 100 µM | CCRF-CEM > 100 µM | TK-10 > 100 µM | SF-268 > 100 µM | K562 > 100 µM | UO-31 > 100 µM | NCI-H522 > 100 µM | UACC-257 > 100 µM | CAKI-1 > 100 µM | HCC 2998 > 100 µM | MOLT-4 > 100 µM | UACC-62 > 100 µM | OVCAR-5 > 100 µM | SNB-19 > 100 µM | SNB-75 > 100 µM

C/C(=N\NC(=S)N1CCC(C2CCN(C(=S)N/N=C(\C)c3ccccn3)CC2)CC1)c1ccccn1
inactive: SN12C 86.3 µM | SK-MEL-28 > 100 µM | HOP-92 37.8 µM | SF-295 71.3 µM | CCRF-CEM > 100 µM | TK-10 53.8 µM | SF-268 > 100 µM | K562 > 100 µM | UO-31 > 100 µM | NCI-H522 63.5 µM | UACC-257 > 100 µM | CAKI-1 68.1 µM | HCC 2998 > 100 µM | UACC-62 > 100 µM | OVCAR-5 > 100 µM | SNB-19 74.1 µM | OVCAR-3 60.3 µM | SNB-75 28.2 µM

CC(C)CCCC(C)[C@H]1CCC2[C@H]3C(CC[C@@]21C)[C@@]1(C)CCC=C[C@]12C[C@@H]2[C@@H]3O (some centres undefined)
inactive: SN12C > 100 µM | SK-MEL-28 > 100 µM | HOP-92 > 100 µM | SF-295 > 100 µM | CCRF-CEM > 100 µM | TK-10 > 100 µM | SF-268 > 100 µM | UO-31 > 100 µM | NCI-H522 > 100 µM | UACC-257 > 100 µM | CAKI-1 > 100 µM | HCC 2998 > 100 µM | MOLT-4 > 100 µM | UACC-62 > 100 µM | OVCAR-5 > 100 µM | SNB-19 > 100 µM | OVCAR-3 > 100 µM | SNB-75 > 100 µM

Cc1ccc(/C=C/C(=O)C(C)C)cc1
inactive: SK-MEL-28 > 100 µM | HOP-92 41.8 µM | SF-295 38.3 µM | CCRF-CEM 22.9 µM | TK-10 > 100 µM | SF-268 > 100 µM | K562 31.3 µM | UO-31 54.1 µM | NCI-H522 24.8 µM | UACC-257 53.6 µM | HCC 2998 > 100 µM | MOLT-4 30.2 µM | UACC-62 37.2 µM | OVCAR-5 18.4 µM | SNB-19 84.7 µM | OVCAR-3 32.1 µM | SNB-75 35.2 µM

Cn1c(=O)c(C(c2ccccc2)c2c(O)c3ccccc3n(C)c2=O)c(O)c2ccccc21
inactive: SN12C > 100 µM | SK-MEL-28 > 100 µM | HOP-92 > 100 µM | SF-295 > 100 µM | TK-10 > 100 µM | SF-268 > 100 µM | K562 > 100 µM | UO-31 > 100 µM | NCI-H522 > 100 µM | UACC-257 > 100 µM | CAKI-1 > 100 µM | HCC 2998 > 100 µM | MOLT-4 45.3 µM | UACC-62 > 100 µM | OVCAR-5 23.2 µM | SNB-19 > 100 µM | OVCAR-3 > 100 µM | SNB-75 38.1 µM

COC1CCC2C(=O)CCCC2O1 (centres undefined)
inactive: SN12C > 100 µM | HOP-92 > 100 µM | SF-295 > 100 µM | TK-10 > 100 µM | SF-268 > 100 µM | K562 > 100 µM | UO-31 > 100 µM | NCI-H522 > 100 µM | UACC-257 > 100 µM | CAKI-1 > 100 µM | HCC 2998 > 100 µM | MOLT-4 > 100 µM | UACC-62 > 100 µM | OVCAR-5 > 100 µM | SNB-19 > 100 µM | OVCAR-3 > 100 µM | SNB-75 > 100 µM

O=C1OC(Cl)C(N=P(c2ccccc2)(c2ccccc2)c2ccccc2)=C1Cl (centres undefined)
inactive: SN12C > 100 µM | SK-MEL-28 > 100 µM | HOP-92 > 100 µM | SF-295 > 100 µM | CCRF-CEM > 100 µM | TK-10 > 100 µM | SF-268 > 100 µM | K562 > 100 µM | UO-31 > 100 µM | NCI-H522 > 100 µM | UACC-257 > 100 µM | CAKI-1 > 100 µM | HCC 2998 > 100 µM | MOLT-4 > 100 µM | UACC-62 > 100 µM | SNB-19 > 100 µM | OVCAR-3 > 100 µM | SNB-75 36.4 µM

CC(C)c1cccc(C(C)C)c1NC(=O)C(=O)C(C(=O)c1ccc2ccccc2c1)C1OC(=O)c2ccccc21 (centres undefined)
inactive: SN12C > 100 µM | SK-MEL-28 > 100 µM | HOP-92 27.9 µM | SF-295 > 100 µM | CCRF-CEM > 100 µM | SF-268 > 100 µM | K562 > 100 µM | UO-31 47.8 µM | NCI-H522 > 100 µM | UACC-257 > 100 µM | CAKI-1 52.4 µM | HCC 2998 > 100 µM | MOLT-4 > 100 µM | UACC-62 > 100 µM | OVCAR-5 26.9 µM | SNB-19 > 100 µM | OVCAR-3 > 100 µM

C=C1CC[C@@H]2C(C)(C)C(O)CCC2(C)C1COc1ccc2ccc(=O)oc2c1 (some centres undefined)
inactive: SN12C 16.3 µM | SK-MEL-28 18.1 µM | HOP-92 17.3 µM | SF-295 16.2 µM | CCRF-CEM 13.4 µM | TK-10 19.8 µM | SF-268 18.9 µM | K562 16.6 µM | UO-31 16 µM | NCI-H522 16.3 µM | UACC-257 18.6 µM | HCC 2998 19.9 µM | MOLT-4 14.7 µM | UACC-62 15.8 µM | SNB-19 18.3 µM | OVCAR-3 17.9 µM | SNB-75 18 µM

CN(C)CCNc1nc(-c2cccs2)cc(-c2cccs2)n1
inactive: SN12C 12.9 µM | SK-MEL-28 15.9 µM | HOP-92 1.58 µM | SF-295 14.3 µM | CCRF-CEM 4.41 µM | TK-10 14.9 µM | K562 17.7 µM | UO-31 11.2 µM | NCI-H522 > 10 µM | UACC-257 11.6 µM | CAKI-1 > 10 µM | HCC 2998 12.4 µM | MOLT-4 3 µM | UACC-62 19.1 µM | OVCAR-5 9.18 µM | OVCAR-3 22.6 µM | SNB-75 23.8 µM
